Key:
Assay type in all cases: in vivo
[1] = tested on: Blackgrass; experiment: post-emergence herbicide test; settings: Alopecurus myosuroides, post-emergence, 0.25 lb/A; read-out: % plant inhibition
How it was run: (§1)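 Sown pans kept on a greenhouse bench with irrigation or subirrigation until plants reached two to three weeks, then sprayed at 170.3 kPa (10 psig). Spray mix held about 0.4% by volume emulsifier; total volume 1870 L/Ha. Result expressed as percent inhibition.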

[2] = tested on: Downy Brome; experiment: post-emergence herbicide test; settings: Bromus tectorum, post-emergence, 0.25 lb/A; read-out: % plant inhibition
How it was run: as §1

[3] = tested on: Wild Oats; experiment: post-emergence herbicide test; settings: Avena fatua, post-emergence, 0.25 lb/A; read-out: % plant inhibition
How it was run: as §1

[4] = tested on: Velvetleaf; experiment: post-emergence herbicide test; settings: Abutilon theophrasti, post-emergence, 0.25 lb/A; read-out: % plant inhibition
How it was run: as §1

[5] = tested on: Rape; experiment: post-emergence herbicide test; settings: post-emergence, 0.25 lb/A; read-out: % plant inhibition
How it was run: as §1

[6] = tested on: Wheat; experiment: post-emergence herbicide test; settings: Triticum aestivum, post-emergence, 0.25 lb/A; read-out: % plant inhibition
How it was run: as §1

[7] = tested on: Barnyardgrass; experiment: post-emergence herbicide test; settings: Echinochloa crus-galli, post-emergence, 0.25 lb/A; read-out: % plant inhibition
How it was run: as §1

[8] = tested on: Green Foxtail; experiment: post-emergence herbicide test; settings: Setaria viridis, post-emergence, 0.25 lb/A; read-out: % plant inhibition
How it was run: as §1

[9] = tested on: Bedstraw Catchweed; experiment: post-emergence herbicide test; settings: Galium aparine, post-emergence, 0.25 lb/A; read-out: % plant inhibition
How it was run: as §1

[10] = tested on: Birdseye Speedwell; experiment: post-emergence herbicide test; settings: post-emergence, 0.25 lb/A; read-out: % plant inhibition
How it was run: as §1

[11] = tested on: Seedling Johnsongrass; experiment: post-emergence herbicide test; settings: Sorghum halepense, post-emergence, 0.25 lb/A; read-out: % plant inhibition
How it was run: as §1

[12] = tested on: Giant Foxtail; experiment: post-emergence herbicide test; settings: Setaria faberi, post-emergence, 0.25 lb/A; read-out: % plant inhibition
How it was run: as §1

[13] = tested on: Cocklebur; experiment: post-emergence herbicide test; settings: Xanthium strumarium, post-emergence, 0.25 lb/A; read-out: % plant inhibition
How it was run: as §1

[14] = tested on: Common Chickweed; experiment: post-emergence herbicide test; settings: post-emergence, 0.25 lb/A; read-out: % plant inhibition
How it was run: as §1

[15] = tested on: Morning Glory; experiment: post-emergence herbicide test; settings: Ipomoea, post-emergence, 0.25 lb/A; read-out: % plant inhibition
How it was run: as §1

[16] = tested on: Corn; experiment: post-emergence herbicide test; settings: Zea mays, post-emergence, 0.25 lb/A; read-out: % plant inhibition
How it was run: as §1

[17] = tested on: Soybean; experiment: post-emergence herbicide test; settings: Glycine max, post-emergence, 0.25 lb/A; read-out: % plant inhibition
How it was run: as §1

[18] = tested on: Blackgrass; experiment: pre-emergence herbicide test; settings: Alopecurus myosuroides, pre-emergence, 0.25 lb/A; read-out: % plant inhibition
How it was run: (§2)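 Seeds were sown on compacted topsoil in pans and covered with a topsoil layer carrying a known amount of active ingredient in acetone or water, applied before or after covering. Pans were bottom-watered on a greenhouse bench, and % inhibition was scored about 14 days after seeding and treatment.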

[19] = tested on: Downy Brome; experiment: pre-emergence herbicide test; settings: Bromus tectorum, pre-emergence, 0.25 lb/A; read-out: % plant inhibition
How it was run: as §2

[20] = tested on: Wild Oats; experiment: pre-emergence herbicide test; settings: Avena fatua, pre-emergence, 0.25 lb/A; read-out: % plant inhibition
How it was run: as §2

[21] = tested on: Velvetleaf; experiment: pre-emergence herbicide test; settings: Abutilon theophrasti, pre-emergence, 0.25 lb/A; read-out: % plant inhibition
How it was run: as §2

[22] = tested on: Rape; experiment: pre-emergence herbicide test; settings: pre-emergence, 0.25 lb/A; read-out: % plant inhibition
How it was run: as §2

[23] = tested on: Wheat; experiment: pre-emergence herbicide test; settings: Triticum aestivum, pre-emergence, 0.25 lb/A; read-out: % plant inhibition
How it was run: as §2

[24] = tested on: Barnyardgrass; experiment: pre-emergence herbicide test; settings: Echinochloa crus-galli, pre-emergence, 0.25 lb/A; read-out: % plant inhibition
How it was run: as §2

[25] = tested on: Green Foxtail; experiment: pre-emergence herbicide test; settings: Setaria viridis, pre-emergence; 0.25 lb/A; read-out: % plant inhibition
How it was run: as §2

[26] = tested on: Bedstraw Catchweed; experiment: pre-emergence herbicide test; settings: Galium aparine, pre-emergence, 0.25 lb/A; read-out: % plant inhibition
How it was run: as §2

[27] = tested on: Birdseye Speedwell; experiment: pre-emergence herbicide test; settings: pre-emergence, 0.25 lb/A; read-out: % plant inhibition
How it was run: as §2

[28] = tested on: Seedling Johnsongrass; experiment: pre-emergence herbicide test; settings: Sorghum halepense, pre-emergence, 0.25 lb/A; read-out: % plant inhibition
How it was run: as §2

[29] = tested on: Giant Foxtail; experiment: pre-emergence herbicide test; settings: Setaria faberi, pre-emergence, 0.25 lb/A; read-out: % plant inhibition
How it was run: as §2

[30] = tested on: Cocklebur; experiment: pre-emergence herbicide test; settings: Xanthium strumarium, pre-emergence, 0.25 lb/A; read-out: % plant inhibition
How it was run: as §2

[31] = tested on: Common Chickweed; experiment: pre-emergence herbicide test; settings: pre-emergence, 0.25 lb/A; read-out: % plant inhibition
How it was run: as §2

[32] = tested on: Morning Glory; experiment: pre-emergence herbicide test; settings: Ipomoea, pre-emergence, 0.25 lb/A; read-out: % plant inhibition
How it was run: as §2

[33] = tested on: Corn; experiment: pre-emergence herbicide test; settings: Zea mays, pre-emergence, 0.25 lb/A; read-out: % plant inhibition
How it was run: as §2

[34] = tested on: Soybean; experiment: pre-emergence herbicide test; settings: Glycine max, pre-emergence, 0.25 lb/A; read-out: % plant inhibition
How it was run: as §2

**Q.** CCC(C)OC(=O)c1cc(-c2nn(C)c(C(F)(F)F)c2C)c(F)cc1Cl (centres unmarked) [Compound 58] was tested. Which inhibition at 280.212 g/ha [1] did it give?
**A.** 80%

**Q.** What about the inhibition at 280.212 g/ha [2] of the same compound?
**A.** 85%

**Q.** And the inhibition at 280.212 g/ha [3]?
**A.** 85%

**Q.** And the inhibition at 280.212 g/ha [4]?
**A.** 100%

**Q.** And the inhibition at 280.212 g/ha [5]?
**A.** 65%

**Q.** And the inhibition at 280.212 g/ha [6]?
**A.** 18%

**Q.** And the inhibition at 280.212 g/ha [7]?
**A.** 85%

**Q.** What about the inhibition at 280.212 g/ha [8] of the same compound?
**A.** 85%

**Q.** And the inhibition at 280.212 g/ha [9]?
**A.** 90%

**Q.** And the inhibition at 280.212 g/ha [10]?
**A.** 100%

**Q.** And the inhibition at 280.212 g/ha [11]?
**A.** 95%

**Q.** And the inhibition at 280.212 g/ha [12]?
**A.** 95%

**Q.** What about the inhibition at 280.212 g/ha [13] of the same compound?
**A.** 99%

**Q.** What about the inhibition at 280.212 g/ha [14] of the same compound?
**A.** 95%

**Q.** And the inhibition at 280.212 g/ha [15]?
**A.** 100%

**Q.** What about the inhibition at 280.212 g/ha [16] of the same compound?
**A.** 20%

**Q.** What about the inhibition at 280.212 g/ha [17] of the same compound?
**A.** 85%

**Q.** And the inhibition at 280.212 g/ha [18]?
**A.** 95%

**Q.** What about the inhibition at 280.212 g/ha [19] of the same compound?
**A.** 100%

**Q.** What about the inhibition at 280.212 g/ha [20] of the same compound?
**A.** 75%

**Q.** What about the inhibition at 280.212 g/ha [21] of the same compound?
**A.** 100%

**Q.** And the inhibition at 280.212 g/ha [22]?
**A.** 50%

**Q.** What about the inhibition at 280.212 g/ha [23] of the same compound?
**A.** 5%

**Q.** And the inhibition at 280.212 g/ha [24]?
**A.** 100%

**Q.** And the inhibition at 280.212 g/ha [25]?
**A.** 100%

**Q.** And the inhibition at 280.212 g/ha [26]?
**A.** 95%

**Q.** What about the inhibition at 280.212 g/ha [27] of the same compound?
**A.** 100%

**Q.** And the inhibition at 280.212 g/ha [28]?
**A.** 100%

**Q.** What about the inhibition at 280.212 g/ha [29] of the same compound?
**A.** 100%

**Q.** What about the inhibition at 280.212 g/ha [30] of the same compound?
**A.** 75%

**Q.** And the inhibition at 280.212 g/ha [31]?
**A.** 100%

**Q.** And the inhibition at 280.212 g/ha [32]?
**A.** 100%

**Q.** And the inhibition at 280.212 g/ha [33]?
**A.** 20%

**Q.** What about the inhibition at 280.212 g/ha [34] of the same compound?
**A.** 25%

**Q.** Which results are given for COCC(C)OC(=O)c1cc(-c2nn(C)c(C(F)(F)F)c2C)c(F)cc1Cl (centres unmarked) [Compound 52]?
**A.** inhibition at 280.212 g/ha [1]: 95%; inhibition at 280.212 g/ha [2]: 100%; inhibition at 280.212 g/ha [3]: 95%; inhibition at 280.212 g/ha [4]: 100%; inhibition at 280.212 g/ha [5]: 100%; inhibition at 280.212 g/ha [6]: 25%; inhibition at 280.212 g/ha [7]: 99%; inhibition at 280.212 g/ha [8]: 98%; inhibition at 280.212 g/ha [9]: 100%; inhibition at 280.212 g/ha [10]: 100%; inhibition at 280.212 g/ha [11]: 99%; inhibition at 280.212 g/ha [12]: 100%; inhibition at 280.212 g/ha [13]: 100%; inhibition at 280.212 g/ha [14]: 100%; inhibition at 280.212 g/ha [15]: 99%; inhibition at 280.212 g/ha [16]: 15%; inhibition at 280.212 g/ha [17]: 95%; inhibition at 280.212 g/ha [18]: 100%; inhibition at 280.212 g/ha [19]: 100%; inhibition at 280.212 g/ha [20]: 85%; inhibition at 280.212 g/ha [21]: 100%; inhibition at 280.212 g/ha [22]: 60%; inhibition at 280.212 g/ha [23]: 0%; inhibition at 280.212 g/ha [24]: 100%; inhibition at 280.212 g/ha [25]: 100%; inhibition at 280.212 g/ha [26]: 90%; inhibition at 280.212 g/ha [27]: 95%; inhibition at 280.212 g/ha [28]: 100%; inhibition at 280.212 g/ha [29]: 100%; inhibition at 280.212 g/ha [30]: 65%; inhibition at 280.212 g/ha [31]: 95%; inhibition at 280.212 g/ha [32]: 70%; inhibition at 280.212 g/ha [33]: 75%; inhibition at 280.212 g/ha [34]: 5%

Source: patent US5672715A, “Herbicidal substituted 3-aryl-pyrazoles” (Monsanto Company, priority 1995, dated 1997)
